Data set [1] has as its system HT-22 cells. Nature of the data set: Protection against ROS production induced by glutamate in HT-22 cells. The class given is cell-based. The settings on record: Mus musculus.
The test system of data set [2] is HT-22 cells. The experiment in a line: Protection against mitochondrial membrane potential collapse induced by glutamate in HT-22 cells. Format: cell-based. The settings on record: Mus musculus.
Data set [3] deals with HT-22 cells. Nature of the data set: Seahorse XF-24 metabolic flux analysis (OCR, ECAR). The class given is cell-based. Here is the method:
HT22 cells were plated at 8,000/well and cultured on Seahorse XF-24 plates. Cells were grown in previously described medium and environments for 24 hr. On the day of metabolic flux analysis, cells were changed to unbuffered DMEM (DMEM base medium supplemented with 25 mM glucose, 10 mM sodium pyruvate, 31 mM NaCl, 2 mM GlutaMax, pH 7.4) and incubated at 37° C. in a non-CO2 incubator for 1 hr. All medium and injection reagents were adjusted to pH 7.4 on the day of assay. Four baseline measurements of oxygen consumption rate (OCR) and extracellular acidification rate (ECAR) were taken before sequential injection of mitochondrial inhibitors. Specific readings indicated by the arrows were taken after each addition of mitochondrial inhibitor before injection of the subsequent inhibitors. The mitochondrial inhibitors used were oligomycin (10 μM), FCCP (1 μM), and rotenone (5 μM). OCR and ECAR were automatically calculated and recorded by the Seahorse XF-24 software. After the assays, plates were saved and protein readings were measured for each well to confirm equal cell numbers per well. The percentage of change compared with the basal rates was calculated as the value of change divided by the average value of baseline readings.

Another data set has as its system mitochondrial complex I. Nature of the data set: Mitochondrial complex I activity assay (NADH dehydrogenase). The class given is biochemical, rat. Conditions: in place of CoQ1. Here is the method:
(§1) Fresh rat heart was removed and placed in ice-cold mitochondrial isolation buffer containing 210 mM mannitol, 70 mM sucrose, 5 mM HEPES, and 1 mM EDTA, pH 7. The heart was homogenized immediately, and the mitochondrial fraction was isolated by differential centrifugation as described previously (Trounce et al., 1996). Mitochondria were stored at −80° C. until subsequent analysis.
All mitochondrial activity assays were performed according to previous publications with minimal modifications for complex I (Lenaz et al., 2004), complex I-III, complex II, complex III, and II-III (Trounce et al., 1996). […] Complex I activity was monitored by adding NADH to the mix with or without rotenone/antimycin A. The final data were normalized to blank values at time zero. The reaction was monitored in a kinetic spectrophotometer at 340 nm. Complex I activity was measured in arbitrary units and normalized to control levels for statistical analysis. Isolated mitochondria equivalent to 40-200 μg mitochondrial protein was used for each assay, except for assays with inhibitors, when larger amount of mitochondria (3 to 5 folds) were used to ensure that inhibition was distinguishable. Final data were normalized to control levels. For complex I-III activity, the reaction was initiated with the addition of NADH, cyt c was used as final substrate and its reduction was monitored at 550 nm. For assay of complex II-III activity, succinate was added instead of NADH, and the electron transfer to cyt c was performed according to previous publications (Atamna et al., 2008). To test whether the electrons from the reduced form of MB (MBH2) can be transferred to cyt c in mitochondrial lysate, we added 10 μM 2,7-dichlorofluorescin (DCFH, Invitrogen, Carlsbad, Calif.) to the reaction system. Free radicals convert non-fluorescent DCFH to highly fluorescent DCF (Ex, 488 nm, and Em, 530 nm). In the presence of cyt c, which accepts electrons from MBH2, conversion of DCFH to DCF is decreased.

The next data set concerns the target T1, mitochondrial complex II (Rattus norvegicus, UniProt P21913+Q641Z9+Q6PCT8+Q920L2).
T1 construct: the mitochondrial fraction was isolated by differential centrifugation; from tissue; host or cells: rat heart mitochondria
The experiment in a line: Mitochondrial complex II activity assay. Format: biochemical. The settings on record: data not shown. As for the experimental part: as §1
(§2) All mitochondrial activity assays were performed according to previous publications with minimal modifications for complex I (Lenaz et al., 2004), complex I-III, complex II, complex III, and II-III (Trounce et al., 1996). […] Complex I activity was monitored by adding NADH to the mix with or without rotenone/antimycin A. The final data were normalized to blank values at time zero. The reaction was monitored in a kinetic spectrophotometer at 340 nm. Complex I activity was measured in arbitrary units and normalized to control levels for statistical analysis. Isolated mitochondria equivalent to 40-200 μg mitochondrial protein was used for each assay, except for assays with inhibitors, when larger amount of mitochondria (3 to 5 folds) were used to ensure that inhibition was distinguishable. Final data were normalized to control levels. For complex I-III activity, the reaction was initiated with the addition of NADH, cyt c was used as final substrate and its reduction was monitored at 550 nm. […]

For data set [4], the system named is mitochondrial complex III. Nature of the data set: Mitochondrial complex III activity assay. The class given is biochemical, rat. Conditions: data not shown. As for the experimental part: as §1, §2
Data set [5] relates to HT-22 cells. Nature of the data set: Cell viability assay, rotenone induced cytotoxicity. The settings on record: rotenone 8 μM, 100 ng/ml MB co-treatment; vehicle 25.4±1.6%. The class given is cell-based.
Description: Then cells were treated with vehicle (DMSO), rotenone (2-8 μM), antimycin A (1-10 μg/ml), or glucose oxidase (2-10 mU) in the presence or absence of various concentrations of MB for 24 hours. At the end of the 24 hours, the medium was removed and the plates were rinsed with PBS and incubated with 10 μM calcein-AM (Invitrogen, Carlsbad, Calif.) in PBS for 20 minutes. Fluorescence was determined using a TECAN M200 microplate reader (San Jose, Calif.) with an excitation/emission set at 485/530 nm. Cell culture wells treated with bleach before rinsing were used as blank.
Data set [6] concerns HT-22 cells. Nature of the data set: Cell viability assay, H2O2 (glucose oxidase) induced cytotoxicity. The class given is cell-based.
Data set [7] deals with HT-22 cells. Nature of the data set: Mitochondrial superoxide and cellular ROS analysis, rotenone treated cells. The settings on record: MB 100 ng/ml. The class given is cell-based. As for the experimental part: Mitochondrial specific superoxide and cellular ROS were measured with specific fluorescent probes. Briefly, HT-22 cells were treated with vehicle or 2 μM rotenone, with or without 100 ng/ml MB for 4 hr. The cells were dissociated, then incubated in pre-warmed PBS containing 0.5% BSA and H2DCFDA (Cellular ROS) or MitoSox (mitochondrial superoxide) for 15 min at 37° C., followed by washing with PBS. The cells were then resuspended in supplemented RPMI-1640 for further incubation. The cells were analyzed with FITC channel (Cellular ROS), or PE channel (MitoSox) using a BD™ LSRII flow cytometer.

Data set [8] concerns transient MCA occlusion in rats. Nature of the data set: Transient focal cerebral ischemia (MCA occlusion). The class given is in vivo. The settings on record: rat, single dosage of MB at 500 μg/kg, 24 hr after reperfusion.
Excerpt: Transient focal cerebral ischemia was induced by intraluminal filament MCA occlusion (Liu et al., 2005). Briefly, the left internal carotid artery (ICA) was exposed, and a 3-0 monofilament nylon suture was introduced into the ICA lumen through a puncture and gently advanced to the distal ICA until proper resistance was felt. After 1 hr, the suture was withdrawn for reperfusion. At 24 hr after reperfusion, the animals were sacrificed and the brain harvested. The brains were sectioned at 3, 5, 7, 9, 11, 13 and 15 mm posterior to the olfactory bulb. Each slice was incubated 30 min in 2% 2,3,5-triphenyltetrazolium chloride (TTC) in physiological saline, then fixed in 10% formalin. The stained slices were digitally photographed for measurement of ischemic lesion volume (Image-Pro Plus 4.1).
The next data set relates to FRDA fibroblast. The experiment in a line: BSO induced FRDA fibroblast cell death. The class given is cell-based.
The subject of data set [9] is preclinical animal model of Alzheimer's disease. Nature of the data set: Preclinical animal model of Alzheimer's disease, MB supplemented diet. The class given is in vivo. Conditions: long term feeding of MB supplemented diet.
Data set [10] relates to rotenone induced rat model of PD.
Description: Rats were assigned to three groups: control animals received vehicle infusion and daily saline injection (Veh/Sal N=6-8); a second group received rotenone infusion at the dose of 5 mg/kg/day and daily saline injection (ROT/Saline N=8-11); and the third group received rotenone infusion (5 mg/kg/day) and MB injection at the dose of 500 μg/kg/day (ROT/MB N=8-10). Vehicle or rotenone was infused via Alzet osmotic mini pumps that were filled with vehicle or rotenone dissolved in vehicle (equal volumes of dimethylsulfoxide and polyethylene glycol). Pumps containing vehicle or rotenone were sterilized with UV irradiation and implanted subcutaneously on the back. Intraperitoneal injections were administered with normal saline or MB, 500 μg/kg/day, diluted in normal saline to 500 μl of final volume. Rats were sacrificed on day 8 at four hours after last dose of MB or saline treatment.
After completion of neurological assessments and behavioral tests, rats were killed on the 8th day of rotenone infusion under anesthesia induced by xylazine (20 mg/kg, i.p.) and ketamine (100 mg/kg, i.p.). All osmotic pumps were checked for the residual liquid to ensure proper drug delivery. One hemisphere was fixed by 4% paraformaldehyde in phosphate buffer for 48 hr until processing for sectioning. The other hemisphere was snap-frozen in liquid nitrogen, and kept at −80° C. until extraction for biochemical analysis.
Rat hemispheres were sequentially incubated in 10%, 20% and 30% sucrose over night. The brains were then frozen in optimal cutting temperature) compound (VWR, San Francisco Calif.) and sectioned in the coronal plane with a cryostat to produce 20 μm floating sections. For single immunohistochemistry studies, 20-μm sections were blocked with 5% normal goat serum and incubated in primary antibodies at 4° C. over night. […] Double stained sections were examined with conventional fluorescence microscopy, and images were captured on a Zeiss microscope linked to an image analysis system with selective filter sets to visualize FITC, rhodamine, and DAPI separately. […]
For data set [11] the following is noted: pH 7.0; cited from earlier work.

Usually EC50 stands for the concentration at which the effect is half-maximal.

T1 sequence (Q920L2 35-656): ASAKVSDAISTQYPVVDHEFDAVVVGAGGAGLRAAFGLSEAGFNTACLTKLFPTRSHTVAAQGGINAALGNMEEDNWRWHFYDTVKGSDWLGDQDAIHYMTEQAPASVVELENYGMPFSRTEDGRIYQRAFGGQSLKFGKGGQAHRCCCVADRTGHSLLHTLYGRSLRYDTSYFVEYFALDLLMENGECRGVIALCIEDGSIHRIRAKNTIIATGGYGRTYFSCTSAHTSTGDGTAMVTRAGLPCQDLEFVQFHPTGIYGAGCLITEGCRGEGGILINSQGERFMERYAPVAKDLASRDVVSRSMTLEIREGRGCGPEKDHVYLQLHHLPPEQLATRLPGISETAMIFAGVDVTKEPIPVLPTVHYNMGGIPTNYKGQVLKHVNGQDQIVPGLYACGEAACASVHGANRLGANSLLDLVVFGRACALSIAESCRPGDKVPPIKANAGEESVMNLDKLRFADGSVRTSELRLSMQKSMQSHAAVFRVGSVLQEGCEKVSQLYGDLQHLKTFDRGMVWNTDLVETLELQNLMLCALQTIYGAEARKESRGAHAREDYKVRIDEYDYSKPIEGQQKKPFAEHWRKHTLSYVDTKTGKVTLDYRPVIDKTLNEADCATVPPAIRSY
T1 sequence (P21913 31-282): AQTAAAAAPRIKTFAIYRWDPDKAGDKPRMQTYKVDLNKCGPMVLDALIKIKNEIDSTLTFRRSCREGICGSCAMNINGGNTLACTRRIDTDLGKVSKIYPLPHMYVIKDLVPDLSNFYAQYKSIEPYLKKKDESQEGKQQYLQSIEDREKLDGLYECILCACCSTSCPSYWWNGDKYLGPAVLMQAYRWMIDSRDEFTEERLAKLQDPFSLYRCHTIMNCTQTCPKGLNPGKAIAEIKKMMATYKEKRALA
T1 sequence (Q641Z9 1-169): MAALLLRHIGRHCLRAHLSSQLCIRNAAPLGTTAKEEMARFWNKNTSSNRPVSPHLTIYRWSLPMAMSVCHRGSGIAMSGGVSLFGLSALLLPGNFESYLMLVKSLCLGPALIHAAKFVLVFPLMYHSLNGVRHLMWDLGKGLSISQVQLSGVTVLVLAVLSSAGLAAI
T1 sequence (Q6PCT8 57-159): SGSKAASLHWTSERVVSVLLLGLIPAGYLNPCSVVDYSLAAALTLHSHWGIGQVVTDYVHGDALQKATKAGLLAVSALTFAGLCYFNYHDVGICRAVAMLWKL

The molecule `CN(C)c1ccc2nc3ccc(=[N+](C)C)cc-3sc2c1` [methylene blue] showed an EC50 in the data set with HT-22 cells [1] of 20.4 nM. Further, the EC50 with HT-22 cells [2] came to 17.7 nM. Also, in the data set with HT-22 cells [3] (10 μg/ml MB, two hour incubation, vehicle 44±4), the “Extracellular acidification rate (ECAR)” value turned out to be 9±3 mPH/min. For the same molecule, in the data set on HT-22 cells [3] (10 μg/ml MB, two hour incubation, vehicle 264±10), the “Oxygen consumption rate (OCR)” value is 594 ± 19 pmol/min. The “Rotenone induced OCR inhibition” value with HT-22 cells [3] (rotenone 5 μM injection) is listed as “dose-dependently attenuated”. The “Substrate of NADH dehydrogenase in complex I (accepts electrons from NADH)” value with mitochondrial complex I is “can completely replace CoQ1 as a direct substrate”. Further, the “Effect on complex II activity alone” value on mitochondrial complex II is given as “no significant effect”. Moreover, the “Effect on complex III activity alone” value in [4] was “no significant effect”. For the same molecule, the Cell survival with HT-22 cells [5] was found to be 60.5±4.5%. Moreover, the “Protection against H2O2 induced oxidative damage” value in the data set with HT-22 cells [6] was “failed to protect”. In addition, in the data set on HT-22 cells [7], the “Increase of mitochondrial superoxide (MitoSox probe)” value is reported as “almost completely blocked” and the “Increase of total cellular ROS (DCFH2-DA)” value is “almost completely blocked”. Moreover, the Ischemic lesion volume result in [8] is recorded as “significantly reduced”. For the same molecule, in the data set with FRDA fibroblast, the “Damaging effects of BSO (cell death)” value is on record as “greatly ameliorates”. In data set [9], the Cognitive functions result is “improves cognitive functions” and the Maximal performance entry was “improves maximal performance”. Also, the “TH-positive cells and nerve fiber in SNC and VTN” value in data set [10] (ROT/MB animals) was “a sufficient amount of TH-positive cell and nerve fiber were observed”. In addition, the “Fluoro-jade B-positive TH neurons” value in [10] (ROT/MB group, 4 out of 11 ROT/Sal animals positive) is “not found”. The “Ubiquitin positive inclusion bodies” value in [10] (ROT/MB group, 6 out 11 ROT/Sal rats positive) is “not found”. Besides, in data set [11], the Redox potential is recorded as 11 mV.

(Values after US20140148446A1, “COMPOUNDS THAT ENABLE ALTERNATIVE MITOCHONDRIAL ELECTRON TRANSFER” (University of North Texas Health Science Center, priority 2010, published 2014).)
